# Measurements from patent US11077209B2, “Use of cerebral nitric oxide donors in the assessment of the extent of brain dysfunction following injury” (OXFORD UNIVERSITY INNOVATION LIMITED, priority 2016, dated 2021).
# Like-named read-outs stand apart in the source and are kept apart here.
# What was measured:
# [1] = test system: patients after severe aneurysmal SAH (WFNS grade 3, 4 or 5); conditions: for percentage change in ADR, median: (during infusion-baseline)/baseline x100; for mean percentage change from baseline ADR over time, FIG. 3: after commencement of the nitrite infusion
# Text: Patients aged 18-80 years admitted to the Neurosciences Intensive Care Unit (NICU) at the John Radcliffe Hospital, Oxford after having suffered severe aneurysmal SAH (WFNS grade 3, 4 or 5 at time of presentation) were eligible for inclusion in the study. There were no specific selection criteria apart from grade of SAH, and the absence of any exclusion criteria (see below).
# Following definitive endovascular aneurysm treatment, each patient underwent a two hour period of continuous EEG monitoring (Porti 7 system, Twente Medical Systems International) on one occasion as soon as was practically possible after endovascular securing of the aneurysm.
# (§1) Sedative drug levels, muscle relaxants and vasopressors were documented and changes in infusion rates were minimised for the duration of the recording.
# We used a simplified EEG montage that aimed for compromise between stable maintenance of recording and full coverage of all vascular territories. Consequently, 7-13 unipolar EEG electrodes (depending on the presence of external ventricular drains and intracranial pressure (ICP) monitors) at the following positions defined according to the international 10-20 system: Cz, Fz, Pz, Fp1, Fp2, F3, F4, P3, P4, T3, T4, O1, O2. EEG data were digitized at a sampling rate of 2048 Hz, with a high pass filter of 0.5 Hz and a low pass filter of 30 Hz.
# Each surviving patient was followed up at three to six months post-rupture. Telephone follow up was performed for patients who were unable to attend hospital due to their clinical status. Primary outcome was measured by the presence or absence of delayed ischemia. Long term outcome was assessed by modified Rankin scale at 3 months, via structured standardised questions in person or by telephone. The modified Rankin scale, is a commonly used grading system that measures the degree of disability or dependence in the daily activities of people who have suffered a neurological insult. Good outcome is defined as a score of 0-2, whereas poor outcome is defined as ≥3.
# Inc.) code and the EEGLAB v13.4.3b analysis toolbox. Datasets were re-referenced to the average of bilateral mastoid reference electrodes and band pass filtered from 0.5 to 15 Hz using a linear finite impulse response (FIR) filter. Each EEG recording was visually inspected and artefacts were manually removed. Channels showing evidence of excessive amounts of noise were removed from each recording.
# Spectral analysis was carried out using FieldTrip, a MATLAB software toolbox for EEG analysis. Data was windowed into 30-second segments that overlapped by 50%. Time-frequency analysis was performed using a multi-taper spectral estimation using discrete prolate spheroidal (Slepian) sequences with 14 tapers, and fast Fourier transform algorithm for each electrode channel. Five 60-second epochs were selected randomly from the first (baseline) and last thirty minutes of the recording (during infusion). The epochs were separated by at least 60 seconds to avoid autocorrelation. The corresponding frequency distribution in each epoch was identified, which enabled determination of power values in the following frequency bands: delta 1-4 Hz, alpha 8-12 Hz and total low frequency power 1-15 Hz.
# Statistical analysis was carried out using R and the analysis package nlme. We applied a two level linear mixed effects multilevel model to the data to allow for within patient correlation due to repeated measures on each patient over time. […] A qqnorm plot was used to identify any outliers and these were subsequently eliminated from the model. Goodness of fit was assessed via Shapiro-Wilk normality tests on fixed and random effect residuals, and calculation of R^2 for the model.
# [2] = test system: patients after severe aneurysmal SAH (WFNS grade 3, 4 or 5)
# Experimental: as §1
# The patients also underwent simultaneous transcranial Doppler (TCD) monitoring. Insonation of the MCA M1 segment was performed unilaterally on the side with the best window using colour-coded duplex ultrasound (EZ-Dop, DWL; 2 Mz probe).
# The patient's PETCO2, end-tidal O2, ABP and SpO2 were recorded continuously and collected on a Power-1401 data acquisition interface (Cambridge Electronic Design). […] Arterial CO2 values were collected once during the duration of the recording as part of routine clinical care.
# Waveform analysis was performed using custom written MATLAB code, enabling calculation of average pre and during infusion values for TCD middle cerebral artery velocity (MCAV) ABP, PETCO2, end-tidal O2 and ICP.
smiles,measurement,setting,value
O=NO [sodium nitrite],"percentage change in ADR, median",[1]; good outcome group,increases
same,"mean percentage change from baseline ADR over time, FIG. 3",[1]; good outcome group,increases
same,"ADR during infusion, median","[1]; good outcome group, baseline median 0.03",0.05
same,delta power response to a 1-hour infusion (discussion),[1]; patients with good outcome,significant increase
same,"percentage change in ADR, median",[1]; poor outcome group,no significant differences
same,"mean percentage change from baseline ADR over time, FIG. 3",[1]; poor outcome group,does not change
same,baseline versus during infusion ADR,[1]; poor outcome patients (mRS >=3),no significant differences
same,mean MAP in response to sodium nitrite,"[2]; 14 patients, from a mean MAP of 87 mmHg, p=0.026",84 mmHg
same,"change in TCD, MCAV as a result of sodium nitrite infusion",[2]; pre versus during infusion,no significant changes
same,change in ICP as a result of sodium nitrite infusion,"[2]; pre versus during infusion, 10 patients",no significant changes
same,change in end tidal CO2 as a result of sodium nitrite infusion,"[2]; pre versus during infusion, 13 patients",no significant changes
